From patent US4201865A, “Novel prostaglandin analogues” (Gruppo Lepetit S.p.A., priority 1978, dated 1980)

Test system: acidic gastric secretion
Assay: inhibition of the acidic gastric hypersecretion induced by histamine in dogs (gastric fistula and Haidenhain pouche)
Assay type: in vivo, mongrel dogs
Details: mean of four dogs; for % inhibition of the acidic gastric secretion over the controls in the H.P.: histamine 160 μg kg^-1 h^-1, denervated Haidenhain pouche; for % inhibition of the acidic gastric secretion over the controls in the G.F.: histamine 160 μg kg^-1 h^-1, innervated gastric fistula (main stomach)
Protocol: In the actual practice, the gastric antisecretory properties were evaluated on the basis of their effectiveness in inhibiting the hyperacidity induced by hystamine in dogs. Hystamine, which is a potent stimulator of the acidic gastric secretion (see Bertaccini et al. Eur. Journ. Pharmacol., 28, 360, 1974), was administered intravenously by continuous infusion during the experiments.
A group of four mongrel dogs weighing approximately 20 Kg was used in each experiments.
The dogs were surgically operated in the stomachs according to the method described by Bertaccini et al. (see above), in order to provide each animal with an innervated gastric fistula (G.F.) or main stomach, and a denervated Haidenhain pouche (H.P.).
The main stomach and the Haidenhain pouche were each equipped with a cannula in order to allow the gastric juices to drain to the exterior by gravity. The two surgically prepared cavities allow to determine if the antisecretory effect has to be ascribed to a direct action of the tested compounds on the oxyntic cells ie., the cells of the gastric walls secreting acidity, (inhibition of the hyperacidity produced both by G.F. and H.P.) or if it is mediated by the autonomous nervous system (inhibition of the hyperacidity produced only by G.F.). After a period of four to five weeks which was allowed to the animals for recovery, the dogs were administered intravenously with histamine in the amount of 160 micrograms of hystamine per kg. of body weight per hour (160 μg-kg^-1 h^-1) in order to stimulate the acidic secretion both in the G.F. and in the H.P. The maximum secretory effect was reached after approximately 1 hour and the infusion of histamine was prolonged for approximately three further hours. During the whole period of infusion, the acidic output was collected every ten minutes and titrated by means of NaOH 0.1 to pH 7.0 on an automatic titrator (Radiometer, Copenhagen). The so-obtained values (mean of four dogs) were considered as the "control values". Food, but not water, was withheld 18 hours before each experiments. At the beginning, the dogs were administered with 160 μg kg^-1 h^-1 of histamine. After reaching the maximum secretory value ie., approximately after 1 hour, the compound to be tested was administered intravenously at predetermined dosages per kg. of body weight during one hour, while the infusion of histamine at the above dosage was carried on. During this period the acidic output both from the G.F. and H.P. was collected every ten minutes and titrated as described above.
By means of the so obtained values (mean of four dogs) and the corresponding "control values" ie., the values obtained by determining the acidic output for one hour after the maximum secretory effect due to histamine was reached, it was possible to establish, by obvious calculations, the percent inhibition of the acidic gastric secretion both from the G.F. and the H.P. of the tested compounds versus the controls.
Representative experiments have shown that dosages varying from about 50 to about 100 μg/kg hour practically block the gastric hyperacidity induced by histamine both in the G.F. and in the H.P. This can be seen from the following table, wherein the results obtained by testing the compound of example 2 having [α]D^20 =-77.7 (c=0.67% in CHCl3) and the compound of example 5 having [α]D^20 =-45 (c=0.46% in CHCl3) are reported: […]

[1] = 10 μg kg^-1 h^-1, intravenous during one hour
[2] = 25 μg kg^-1 h^-1, intravenous during one hour
[3] = 50 μg kg^-1 h^-1, intravenous during one hour
[4] = 100 μg kg^-1 h^-1, intravenous during one hour

CCCCC(OC)C(O)/C=C/[C@H]1[C@H](O)CC(=O)[C@@H]1C/C=C\CCCC(=O)OC (single isomer, unassigned) [Example 2, 11α, 15-Dihydroxy-16-methoxy-9-oxo-prosta-5(Z),13(E)-diene-1-oic-acid methyl esters]
% inhibition of the acidic gastric secretion over the controls in the H.P. [1]: 25% | % inhibition of the acidic gastric secretion over the controls in the G.F. [1]: 25% | % inhibition of the acidic gastric secretion over the controls in the H.P. [2]: 50% | % inhibition of the acidic gastric secretion over the controls in the G.F. [2]: 50% | % inhibition of the acidic gastric secretion over the controls in the H.P. [3]: 95% | % inhibition of the acidic gastric secretion over the controls in the G.F. [3]: 95%

CCCCC(C)(OC)C(O)/C=C/[C@H]1[C@H](O)CC(=O)[C@@H]1C/C=C\CCCC(=O)OC (single isomer, unassigned) [Example 5, 11α,15-Dihydroxy-16-methyl-16-methoxy-9-oxo-prosta-5(Z), 13(E)-diene-1-oic acid methyl esters]
% inhibition of the acidic gastric secretion over the controls in the H.P. [1]: 20% | % inhibition of the acidic gastric secretion over the controls in the G.F. [1]: 20% | % inhibition of the acidic gastric secretion over the controls in the H.P. [3]: 55% | % inhibition of the acidic gastric secretion over the controls in the G.F. [3]: 55% | % inhibition of the acidic gastric secretion over the controls in the H.P. [4]: 100% | % inhibition of the acidic gastric secretion over the controls in the G.F. [4]: 100%
